Source: patent US20080090254A1, “Method for assessing proliferation inhibiting effect of inhibitor, and method for determining sensitivity of tumor cell to inhibitor” (SYSMEX CORPORATION, priority 2006, published 2008)

Key:
[1] = test system: receptor tyrosine kinase group derived from a cell membrane of MDA-MB468; experiment: activity of receptor tyrosine kinase group, sample for reaction MB468 (ELISA, GST-poly(Glu, Tyr) substrate); assay type: biochemical; conditions: for effect of inhibiting the activity of a receptor tyrosine kinase group, inhibitor combined with 4557W: Example 2, FIG. 6, 400 μM inhibitor combined with 400 μM 4557W; for effect of inhibiting the activity of a receptor tyrosine kinase group, inhibitor alone: Example 2, FIG. 6, treating solution containing 400 μM inhibitor alone; for inhibition of the activity of the receptor tyrosine kinase group: Example 1, FIG. 3, treating solution containing 400 μM inhibitor, versus sample not treated = 100%
Experimental: (§1) From five kinds of cultured cells (MDA-MB453, MDA-MB468, SKBr3, Hela and HT29), a sample for reaction was prepared. Specifically, the cultured cell and 1 ml of a cell treating solution (containing 20 mM HEPES pH7.4, 0.2% PI, 10% glycerol, 200 μM Na3VO4, and 50 mM NaF) were mixed. By pressing using a pestle, a cell membrane of the resulting mixed solution was destructed to prepare a cell solution. The resulting cell solution was centrifuged, a supernatant was discarded, and a precipitate was recovered. The recovered precipitate and a cell membrane solubilizing solution (containing 20 mM HEPES pH7.4, 1% NP40, 0.2% PI, 10% glycerol, 200 μM Na3VO4, and 50 mM NaF) were mixed. A cell membrane in the mixed solution obtained by pressing using a pestle was solubilized, and centrifuged to recover a supernatant. This supernatant was used as a sample for reaction. MDA-MB453 is a cultured cell derived from a breast cancer, and a sample for reaction prepared from this cell is designated as sample for reaction MB453. MDA-MB468 is a cultured cell derived from a breast cancer, and a sample for reaction prepared from this cell is designated as sample for reaction MB468. SKBr3 is a cultured cell derived from a breast cancer, and a sample for reaction prepared from this cell is designated as sample for reaction SKBr3. Hela is a cultured cell derived from a uterine cervical cancer, and a sample for reaction prepared from this cell is designated sample for reaction Hela. HT29 is a cultured cell derived from a large intestine cancer, and a sample for reaction prepared from this cell is designated sample for reaction HT29.
As a plate for ELISA, a glutathione-coated plate (Reacti-Bind Clear Glutathione Coated Plates, 8-well Strip (PIERCE)) was used. First, each well of the plate was washed with TBS-T (containing 25 mM Tris, 150 mM NaCl and 0.05% Tween 20) three times. Then, into each well was placed 50 μl of the substrate solution 1 containing the GST-poly (Glu, Tyr) substrate prepared in the 1 (TBS containing 5 μg/ml GST-poly (Glu, Tyr) substrate), and this was incubated at 25° C. for 1 hour while slightly shaken. After incubation, each well was washed with TBS-T two times. Further, each well was washed with 20 mM HEPES pH7.4 (containing 0.05% Tween 20) once. Like this, the GST-poly (Glu, Tyr) substrate was bound to a surface of a well of the plate for ELISA. This plate for ELISA was used in the following enzyme reaction.
First, 25 μl of the sample for reaction MB453 was dispensed into 6 tubes, respectively. Among 6 tubes, to the first tube was added 25 μl of a treating solution containing 400 μM (20 mM HEPES pH7.4, 20 mM MnCl2, 2 mM DTT, 1% NP40, 10% glycerol, 200 μM Na3VO4, 50 mM NaF, 400 μM ATP). To the second tube was added 25 μl of a treating solution containing 400 μM AG1478. To the third tube was added 25 μl of a treating solution containing 400 μM 4557W. To the fourth tube was added 25 μl of a treating solution containing 400 μM PDGF Receptor Tyrosine Kinase Inhibitor III. To the fifth tube was added 25 μl of a treating solution containing 400 μM VEGF Receptor Tyrosine Kinase Inhibitor III. To the sixth tube was added 25 μl of a treating solution containing no inhibitor. The thus obtained solutions are used as a reaction solution. Similarly, using the sample for reaction MB468, the sample for reaction SKBr3, the sample for reaction Hela and the sample for reaction HT29, samples for reaction were prepared. In order to suppress the enzyme activity of receptor tyrosine kinase, this working was performed under the condition of not higher than 4° C.
Fifty microliter of each reaction solution was placed into separate wells of the plate for ELISA, and this was incubated at 25° C. for about 30 minutes. After incubation, 100 μl of a reaction stopping solution (TBS-T containing 1 mM EDTA) was added to each well, followed by further washing with TBS-T three times. Then, each well was washed with 300 μl of StartingBlock T20 (TBS) Blocking Buffer (PIERCE). […]

[2] = test system: receptor tyrosine kinase group derived from a cell membrane of SKBr3; experiment: activity of receptor tyrosine kinase group, sample for reaction SKBr3 (ELISA, GST-poly(Glu, Tyr) substrate); assay type: biochemical; conditions: Example 1, FIG. 3, treating solution containing 400 μM inhibitor, versus sample not treated = 100%
Experimental: as §1, with “Hela is a cultured cell derived from a uterine cervical cancer, and a sample for reaction prepared from this cell is designated sample for reaction Hela. HT29 is a cultured cell derived from a large intestine cancer, and a sample for reaction prepared from this cell is designated sample for reaction HT29.” left out

MDA-MB468 = experiment: cell proliferation, CellTiter-Glo Luminescent Cell Viability Assay; assay type: cell-based; conditions: cultured 3 days
Experimental: (§2) Cells were seeded on each well of a plate for culturing (96 Well Solid White Flat Bottom Polystyrene TC-Treated Microplates, Corning) at 1000 cells per well, and cultured at 37° C. for 24 hours. After culturing, an inhibitor was added to each well, and cells were further cultured at 37° C. for 3 days. As cells, five kinds of cultured cells used in Example 1 (MDA-MB453, MDA-MB468, SKBr3, Hela and HT29) were used. As the inhibitor, five kinds of inhibitors used in Example 1 (PD153035, AG1478, 4557W, PDGF Receptor Tyrosine Kinase Inhibitor III and VEGF Receptor Tyrosine Kinase Inhibitor III) were used. In Table 1, the final concentration is a concentration when the inhibitor is added to a well, and is mixed with cells.
(§3) For measuring cell proliferation, CellTiter-Glo Luminescent Cell Viability Assay (Promega) was used. This is a reagent kit which can quantitate ATP derived from a cell having the metabolism activity in a medium to measure a viable cell. First, according to a protocol attached to the kit, a measurement reagent was prepared. The measurement reagent was added at 100 μl per well, and a culturing plate was stirred with a shaker for 2 minutes. After stirring, the plate was allowed to stand for 10 minutes, and […] was measured using GENios (TECAN). Since […] is generated in proportion with an amount of ATP derived from a cell having the metabolism activity in a medium, a viable cell in a medium can be measured by measuring […].
(§4) Based on the measurement result, radar charts of FIG. 4 were produced. FIG. 4 contains a radar chart in the case of use of MDA-MB453, a radar chart in the case of use of MDA-MB468, a radar chart in the case of use of SKBr3, a radar chart in the case of use of Hela, and a radar chart in the case of use of HT29. These radar charts show a proportion of a measured value obtained by treating a cell with an inhibitor, letting a measured value when a cell was not treated with an inhibitor to be 100%. In radar charts, 1 is the case where a cell was treated with PD153035, 2 is the case where a cell was treated with AG1478, 3 is the case where a cell was treated with 4557W, 4 is the case where a cell was treated with PDGF Receptor Tyrosine Kinase Inhibitor III, and 5 is the case where a cell was treated with VEGF Receptor Tyrosine Kinase Inhibitor III.

HT29 = experiment: as above; assay type: cell-based; conditions: Comparative Example 1, FIG. 4, final concentration 1 × 10^−5 M (Table 1), cultured 3 days
Experimental: as §2, §3, §4

MDA-MB453 = experiment: as above; assay type: cell-based; conditions: Comparative Example 1, FIG. 4, final concentration 1 × 10^−5 M (Table 1), cultured 3 days
Experimental: as §2, §3, §4

SKBr3 = experiment: as above; assay type: cell-based; conditions: Comparative Example 1, FIG. 4, final concentration 1 × 10^−5 M (Table 1), cultured 3 days
Experimental: as §2, §3, §4

MDA-MB468 tumor = experiment: proliferation of tumor cell in a mouse body (tumor volume); assay type: in vivo; conditions: Comparative Example 2, FIG. 5; BALB/c nu/nu mouse with MDA-MB468 tumor; 30 mg/kg/day injected for 7 days; compared with DMSO
Experimental: MDA-MB468 used in Example 1 was cultured in a culturing solution (DMEM-F12 (Sigma) containing 10% FBS (Hyclone)) so that it became 60% confluent in a 225 cm^2 flask. The resulting cultured cells were suspended to about 1×10^7 in 100 μl of DMEM-F12, to prepare a MDA-MB468 cell solution.
A fat pad of a 10-week old female mouse (BALB/c nu/nu) was injected with 100 μl of the MDA-MB468 cell solution. After 14 days, it was confirmed that a tumor became large in a mouse body. Like this, a tumor was formed in three mice bodies.
Fourteen days after injection with the MDA-MB468 cell solution, a mouse in which a tumor had been generated was injected with an inhibitor solution. Specifically, AG1478 used in Example 1 was dissolved in 100 μl of dimethyl sulfoxide (DMSO, Sigma) to prepare an inhibitor solution 1. And, the inhibitor solution 1 was injected into a mouse to a dose of the inhibitor of 30 mg/kg/day. […]
The day when the mouse was first injected with an inhibitor solution was regarded as the first day after injection. And, on the first day, the third day, the fifth day, and the eighth day after injection, a volume of a tumor in a mouse body was measured. As a volume of a tumor, a long diameter and a short diameter of a tumor were measured, and a volume was calculated from a long diameter and a short diameter on the assumption that a shape of a tumor was an elliptic sphere.

[3] = test system: receptor tyrosine kinase group derived from a cell membrane of HT29; experiment: activity of receptor tyrosine kinase group, sample for reaction HT29 (ELISA, GST-poly(Glu, Tyr) substrate); assay type: biochemical; conditions: Example 1, FIG. 3, treating solution containing 400 μM inhibitor, versus sample not treated = 100%
Experimental: as §1, with “Hela is a cultured cell derived from a uterine cervical cancer, and a sample for reaction prepared from this cell is designated sample for reaction Hela. HT29 is a cultured cell derived from a large intestine cancer, and a sample for reaction prepared from this cell is designated sample for reaction HT29.” left out

[4] = test system: receptor tyrosine kinase group derived from a cell membrane of MDA-MB453; experiment: activity of receptor tyrosine kinase group, sample for reaction MB453 (ELISA, GST-poly(Glu, Tyr) substrate); assay type: biochemical; conditions: Example 1, FIG. 3, treating solution containing 400 μM inhibitor, versus sample not treated = 100%
Experimental: as §1, with “Hela is a cultured cell derived from a uterine cervical cancer, and a sample for reaction prepared from this cell is designated sample for reaction Hela. HT29 is a cultured cell derived from a large intestine cancer, and a sample for reaction prepared from this cell is designated sample for reaction HT29.” left out

[5] = Comparative Example 1, FIG. 4, final concentration 1 × 10^−6 M (Table 1)

Structure (SMILES)	effect of inhibiting the activity of a receptor tyrosine kinase group, inhibitor combined with 4557W [1]	effect of inhibiting the activity of a receptor tyrosine kinase group, inhibitor alone [1]	inhibition of the activity of the receptor tyrosine kinase group [1]	inhibition of proliferation of a tumor cell in a mouse body (change in volume of tumor) (MDA-MB468 tumor)	inhibition of proliferation (MDA-MB468; [5])	further results
COc1cc2ncnc(N3CCN(C(=O)Nc4ccc(Oc5ccccc5)cc4)CC3)c2cc1OC	high activity inhibiting effect	little effect	–	–	–	–
CCCNC(=O)Nc1ccc(Oc2ncnc3cc(OC)c(OC)cc23)cc1Cl	high activity inhibiting effect	little effect	–	–	–	–
COc1cc2ncnc(Nc3ccc(OCc4ccccc4)cc3)c2cc1OC [4557W]	–	highest activity inhibiting effect	inhibited	recognized	–	inhibition of the activity of the receptor tyrosine kinase group [2]: inhibited; inhibition of proliferation (MDA-MB468; Comparative Example 1, FIG. 4, final concentration 1 × 10^−5 M (Table 1)): recognized; inhibition of proliferation (HT29): recognized; inhibition of proliferation (MDA-MB453): recognized; inhibition of proliferation (SKBr3): recognized; inhibition of the activity of the receptor tyrosine kinase group [3]: inhibited; inhibition of the activity of the receptor tyrosine kinase group [4]: inhibited
COc1cc2ncnc(Nc3cccc(Cl)c3)c2cc1OC [AG1478]	–	–	inhibited	recognized	recognized	–
COc1cc2ncnc(Nc3cccc(Br)c3)c2cc1OC [PD153035]	–	–	inhibited	–	recognized	–
